Assay [1] has as its system type A influenza virus (H1N1 subtype). In words: microbe, parasite or virus in culture. Format: cell-based. The settings on record: H1N1, Calu-3, 48 h.
Assay [2] deals with Ebola virus-derived trVLP. Kind of assay: microbe, parasite or virus in culture. Format: cell-based. The settings on record: Zaire ebolavirus, Huh-7, 48 h.

Our source for the IC50 values is patent US20250387369A1 (priority 2022, published 2025).

As a reminder, the IC50 is the midpoint of a concentration-inhibition curve. `NC(=O)c1nc(F)c[nH]c1=O` [Favipiravir] gave an IC50 in assay [1] of 9.5 µM. As for `CCC(CC)COC(=O)[C@H](C)N[P@](=O)(OC[C@H]1O[C@@](C#N)(c2ccc3c(N)ncnn23)[C@H](O)[C@@H]1O)Oc1ccccc1` [Remdesivir], 0.1 µM corresponded to half-maximal inhibition in assay [2] (IC50).
